Results: patent US20130330412A1, “SMART POLYMERIC NANOPARTICLES WHICH OVERCOME MULTIDRUG RESISTANCE TO CANCER THERAPEUTICS AND TREATMENT-RELATED SYSTEMIC TOXICITY” (THE JOHNS HOPKINS UNIVERSITY, priority 2010, published 2013)

Experiments:
[1] = cited from earlier work
[2] = system: C57BL/6 wild-type mice; assay: Glutathione and glutathione peroxidase (GPx) in mouse heart lysates; format: in vivo
Protocol: To evaluate the degree of oxidative stress in treated mice, levels of the antioxidants glutathione and glutathione peroxidase (GPx) were evaluated by western blot and ELISA, respectively, in mouse heart lysates.

[3] = system: C57BL/6 wild-type mice; assay: Hemoglobin and leukocyte counts in cardiotoxicity study (FIG. 16d); format: in vivo; conditions: 9 mg/kg DOX equivalent i.v. once weekly for 4 weeks
Source text: C57BL6/J mice received an equivalent weekly cumulative dose of free doxorubicin, commercially available liposomal formulation of doxorubicin (Doxil), NanoDox, NanoDoxCurc, or vehicle only for 4 weeks. One week after the last dose, various cardiac parameters were examined by echocardiogram followed by collection of blood by cardiac puncture. […] (d) Hemoglobin and leukocyte counts from blood samples from each treatment arm.
Blood samples were collected from experimental animals by cardiac puncture and hearts were collected for histological and molecular studies.

[4] = system: BxPC3; assay: In vitro cell viability (MTT) assay with gemcitabine, BxPC3 (FIG. 9); format: cell-based, human; conditions: BxPC3, 96 hours
Protocol: FIG. 9 illustrates in vitro cell viability (MTT assay) performed using the water-soluble drug gemcitabine conjugated to the acrylic acid (AA) surface reactive functional group of polymeric nanoparticle. Unlike the poorly water drugs that are encapsulated within the nanoparticle, water soluble drugs like gemcitabine can be conjugated to the nanoparticle surface, rendering this compound amenable to oral delivery. Human pancreatic cancer cell line BxPC3 is incubated with increasing dosages of either free gemcitabine (black bar), nano-gemcitabine (white bar), void polymer (grey bar), or PBS solvent (patterned bar). UT=untreated. […] All assays were performed in triplicate and means and standard deviations are plotted.
Gemcitabine is a water soluble compound, and thus differs from the poorly water soluble drugs discussed above that are encapsulated within the hydrophobic core of the polymeric nanoparticles. Herein, we describe the chemical conjugation of gemcitabine, as one illustrative example of water soluble drugs, to the hydrophilic surface of the polymeric nanoparticles. Such conjugation is expected to render gemcitabine amenable to oral delivery, utilizing the oral bioavailability properties of the said polymeric nanoparticles used as a carrier. 10 mg of NMA622 polymeric nanoparticles were dispersed in 10 ml of water by vortexing. […]

[5] = Solubilization of poorly water soluble drugs in water (FIG. 2); format: physicochemical; conditions: visual
[6] = Blood levels of rapamycin 2 hours after oral delivery (FIG. 10); format: in vivo, C57/B6 mice; conditions: 15 mg/kg rapamycin equivalent, 2 hours post delivery, HPLC
Source text: FIG. 10 illustrates blood levels of rapamycin following oral delivery of polymeric nanoparticles. Rapamycin was encapsulated in nanoparticles comprised of increasing order of acrylic acid (AA) percentage in the co-polymeric composition. The nanoparticles were either administered as is, or after surface PEGylation. Compared are: Control A (rapamycin suspended in water); rapamycin nanoparticle comprised of NIPAAM:VP:AA in a ratio of 60:30:10 (designated as NVA631); rapamycin nanoparticle comprised of NIPAAM:VP:AA in a ratio of 60:20:20 (designated as NVA622); rapamycin nanoparticle comprised of NIPAAM:VP:AA in a ratio of 60:10:30 (designated as NVA613); and rapamycin nanoparticle comprised of NIPAAM:MMA:AA in a ratio of 60:20:20 (designated as NMA622). The corresponding PEGylated nanoparticles (PEG-NVA-631, PEG-NVA-622, PEG-NVA-613, and PEG-NMA-622) encapsulating rapamycin are designated as shaded bars. […] Blood levels are measured by HPLC from samples obtained at 2 hours post oral delivery.
Rapamycin is a poorly water soluble drug that has low oral bioavailability. […] At 2 hours post oral administration, the mice were bled and rapamycin concentrations in the blood were determined by high performance liquid chromatography (HPLC). […]

SMILES: COc1cccc2c1C(=O)c1c(O)c3c(c(O)c1C2=O)C[C@@](O)(C(=O)CO)C[C@@H]3O[C@H]1C[C@H](N)[C@H](O)[C@H](C)O1 [DOX, doxorubicin]
- patients developing congestive heart failure (CHF) ([1]; cumulative dose of 550 mg/m2): 26%
- frequency of CHF in pediatric acute lymphoblastic leukemia (ALL) patients ([1]; pediatric ALL patients): ≤ 57%
- glutathione level (western blot) [2]: marked decrease
- glutathione peroxidase (GPx) level (ELISA) [2]: marked decrease
- Hemoglobin and leukocyte counts [3]: reduced
- Hemoglobin (Hb) level, average ([3]; control 12.5 g/dL): 7.5 g/dL

SMILES: Nc1ccn([C@@H]2O[C@H](CO)[C@@H](O)C2(F)F)c(=O)n1 [free gemcitabine, gemcitabine]
- activity in cell viability assay [4]: comparable activity

SMILES: CC(=O)O[C@H]1C(=O)[C@@]2(C)[C@H]([C@H](OC(=O)c3ccccc3)[C@]3(O)C[C@H](OC(=O)[C@H](O)[C@@H](NC(=O)c4ccccc4)c4ccccc4)C(C)=C1C3(C)C)[C@]1(OC(C)=O)CO[C@@H]1C[C@@H]2O [free paclitaxel, paclitaxel]
- solubility in water (turbidity / transparency of solution) [5]: essentially insoluble in water

SMILES: CO[C@H]1C[C@@H]2CC[C@@H](C)[C@@](O)(O2)C(=O)C(=O)N2CCCC[C@H]2C(=O)O[C@H]([C@H](C)C[C@@H]2CC[C@@H](O)[C@H](OC)C2)CC(=O)[C@H](C)/C=C(\C)[C@@H](O)[C@@H](OC)C(=O)[C@H](C)C[C@H](C)/C=C/C=C/C=C/1C [free rapamycin, rapamycin]
- solubility in water (turbidity / transparency of solution) [5]: essentially insoluble in water
- blood levels of rapamycin [6]: essentially undetectable

SMILES: CO[C@H]1/C=C/O[C@@]2(C)Oc3c(C)c(O)c4c(O)c(c(/C=N/N5CCN(C)CC5)c(O)c4c3C2=O)NC(=O)/C(C)=C\C=C\[C@H](C)[C@H](O)[C@@H](C)[C@@H](O)[C@@H](C)[C@H](OC(C)=O)[C@@H]1C [free rifampicin, rifampicin]
- solubility in water (turbidity / transparency of solution) [5]: essentially insoluble in water
